What all share (assay type): in vivo
One series concerns Anthonomus grandis. Briefly: Action on Boll Weevil (Anthonomus grandis). The following applies: 800 ppm; egg and larval mortality; 5 days. The gist of the method:
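Diet in 96-well plates, seeded with 5-10 A. grandis eggs, received a spray of formulated compound (25% DMSO in water) at a range of concentrations, duplicated. Mortality of eggs and larvae was judged by eye after 5 days at about 25±1 °C, 75±5% relative humidity.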

The test system of another series is Heliothis virescens. Briefly: Action on Tobacco Budworm (Heliothis virescens). The note with it: 800 ppm; egg and larval mortality; 5 days. An outline of the steps: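 Eggs (15-25 per well) on diet were held 5 days at about 28±1 °C, 80±5% RH, then egg and larval mortality was scored by eye. Beforehand the diet had been sprayed with compound dilutions formulated in water/DMSO 75:25 v/v, in two replicates.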

For a further series, the system named is Spodoptera eridania. Briefly: Action on Southern Armyworm (Spodoptera eridania), 2nd Instar Larvae. The following applies: 300 ppm; 2nd instar larvae; 4 days after treatment. An outline of the steps:
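2nd-instar Spodoptera eridania larvae (about 10–11 per pot) confined on sprayed, dried Lima bean plants (1st true leaf stage) in sealed bags. Spray solutions: acetone/water 1:1 plus 0.01% surfactant. Held 4 days near 25 °C, 20–40% RH; assessed for mortality and feeding reduction against untreated controls.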

Series [1] concerns Plutella xylostella. Briefly: Action on Diamond Back Moth (Plutella xylostella), microtiter plates, insect diet, eggs. The note with it: 800 ppm; egg and larval mortality; 5 days. Here is the method:
Example B8: Action on Diamond Back Moth (Plutella xylostella)
For evaluating control of diamond back moth (Plutella xylostella) the test unit consisted of 96-well-microtiter plates containing an insect diet and 15-25 P. xylostella eggs. The compounds or mixtures were formulated using a solution containing 75% water and 25% DMSO. Different concentrations of formulated compounds or mixtures were sprayed onto the insect diet at 5 μl, using a custom-built micro atomizer, at two replications. For experimental mixtures in these tests identical volumes of both mixing partners at the desired concentrations respectively, were mixed together. After application, microtiter plates were incubated at 28±1 °C, 80±5% RH for 5 days. Egg and larval mortality was then visually assessed.

The next series relates to Aedes aegypti. Briefly: whole plant or invertebrate. The note with it: 800 ppm; larvae; 2 days. The gist of the method:
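Visual larval mortality was assessed 2 days after treatment (28±1 °C, 80±5% RH). Formulations of compounds or mixtures (75% water/25% DMSO) were applied by micro-atomizer onto diet of 5-15 newly hatched larvae per water-filled well, two replicates per concentration.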

Series [2] concerns Plutella xylostella. Briefly: Action on Diamond Back Moth (Plutella xylostella), cabbage leaf dip, 3rd instar larvae. The following applies: 300 ppm; 3rd instar larvae; 72 hours after treatment. An outline of the steps:
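Cabbage leaves dipped in compound solution (1:1 water:acetone, 0.01% v/v surfactant), air-dried, then infested with ten 3rd-instar larvae in petri dishes on moist filter paper. Mortality scored at 72 h after treatment; feeding damage rated on a 0–100% scale.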

On to `Cc1ccc(C(C)C)c(N2C(=O)CS/C2=N\C(=O)Nc2ccc(-n3cc(NC(=O)c4ccc(Cl)cc4Cl)c(C)n3)cc2)c1` [Example C-27], for which the “mortality in comparison with untreated controls” value (“mortality in comparison” below) in the series with Anthonomus grandis, in the series on Heliothis virescens, in the series on Spodoptera eridania and with Plutella xylostella [1] was “at least 75%” throughout.

Take `Cc1ccc(C(C)C)c(N2C(=O)CS/C2=N\C(=O)Nc2ccc(-n3cc(NC(=O)c4ccc(Cl)cc4)c(C)n3)cc2)c1` [Example C-29]: the “mortality in comparison” value was “at least 50%” in the series with Aedes aegypti; “at least 75%” with Anthonomus grandis; “at least 75%” with Heliothis virescens; “at least 75%” in the series with Spodoptera eridania; “at least 75%” with Plutella xylostella [1].

In the case of `Cc1ccc(C(C)C)c(N2C(=O)CSC2=NC(=O)Nc2ccc(-n3cc(NC(=O)c4ccc(S(C)(=O)=O)cn4)c(C)n3)cc2)c1` [Example C-38], the “mortality in comparison” value in the series with Anthonomus grandis, in the series with Heliothis virescens, in the series on Spodoptera eridania and in the series with Plutella xylostella [1] was “at least 75%” in each case.

As to `Cc1ccc(C(C)C)c(N2C(=O)CSC2=NC(=O)Nc2ccc(-n3nc(C)c(NC(=O)c4ccc(OC(F)(F)F)cc4)c3C)c(Cl)c2)c1` [Example C-45], the “mortality in comparison” value is listed as “at least 50%” in the series with Aedes aegypti; “at least 75%” with Anthonomus grandis; “at least 75%” in the series with Heliothis virescens; “at least 75%” with Spodoptera eridania; “at least 75%” in the series on Plutella xylostella [1].

Take `Cc1ccc(C(C)C)c(N2C(=O)CSC2=NC(=O)Nc2ccc(-n3cc(NC(=O)c4ccc(OC(C)C)cc4)c(C)n3)cc2)c1` [Example C-48]: the “mortality in comparison” value in the series with Heliothis virescens, in the series with Spodoptera eridania and in the series with Plutella xylostella [1] was “at least 75%” in each case.

For `Cc1ccc(C(C)C)c(N2C(=O)CSC2=NC(=O)Nc2ccc(-n3cc(NC(=O)c4ccc(C5COC5)cc4)c(C)n3)cc2)c1` [Example C-52], the “mortality in comparison” value with Anthonomus grandis, in the series with Heliothis virescens and in the series on Plutella xylostella [1] was “at least 75%” in each case.

`Cc1ccc(C(C)C)c(N2C(=O)CSC2=NC(=O)Nc2ccc(-n3cc(NC(=O)c4ccc(S(C)(=O)=O)cc4)c(C)n3)cc2)c1` [Example C-53]: in the series with Plutella xylostella [1], the “mortality in comparison” value is “at least 75%”.

With `Cc1ccc(C(C)C)c(N2C(=O)CSC2=NC(=O)Nc2ccc(-n3cc(NC(=O)c4ccc(N=S(C)(C)=O)cc4)c(C)n3)cc2)c1` [Example C-55], the “mortality in comparison” value with Anthonomus grandis and in the series on Plutella xylostella [1] was “at least 75%” each time.

Take `Cc1ccc(C(C)C)c(N2C(=O)CSC2=NC(=O)Nc2ccc(-n3cc(NC(=O)c4ccc(C(C)(C)C#N)cc4)c(C)n3)cc2)c1` [Example C-56]: the “mortality in comparison” value in the series with Heliothis virescens, in the series on Spodoptera eridania and in the series with Plutella xylostella [1] was “at least 75%” throughout.

Consider `Cc1ccc(C(C)C)c(N2C(=O)CSC2=NC(=O)Nc2ccc(-n3cc(NC(=O)c4ccc(S(C)(=O)=O)c(F)c4)c(C)n3)cc2)c1` [Example C-57], for which the “mortality in comparison” value in the series with Heliothis virescens and in the series with Plutella xylostella [1] was “at least 75%” each time.

`Cc1ccc(C(C)C)c(N2C(=O)CSC2=NC(=O)Nc2ccc(-n3cc(NC(=O)c4ccc(C5CCC5)cc4)c(C)n3)cc2)c1` [Example C-58]: the “mortality in comparison” value in the series with Anthonomus grandis, with Heliothis virescens and in the series with Plutella xylostella [1] was “at least 75%” throughout.

With `CNC(=O)c1ccc(C(=O)Nc2cn(-c3ccc(NC(=O)N=C4SCC(=O)N4c4cc(C)ccc4C(C)C)cc3)nc2C)cn1` [Example C-60], the “mortality in comparison” value in the series with Plutella xylostella [1] is on record as “at least 75%”.

`Cc1ccc(C(C)C)c(N2C(=O)CSC2=NC(=O)Nc2ccc(-n3cc(NC(=O)c4ccc(Cl)nc4)c(C)n3)cc2)c1` [Example C-66]: the “mortality in comparison” value is “at least 50%” with Aedes aegypti, “at least 75%” with Anthonomus grandis, “at least 75%” in the series with Heliothis virescens and “at least 75%” in the series on Plutella xylostella [1].

Take `Cc1ccc(C(C)C)c(N2C(=O)CSC2=NC(=O)Nc2ccc(-n3cc(NC(=O)c4cncnc4)c(C)n3)cc2)c1` [Example C-68]: the “mortality in comparison” value in the series with Anthonomus grandis, in the series on Heliothis virescens, with Spodoptera eridania and with Plutella xylostella [1] was “at least 75%” each time.

As to `Cc1ccc(C(C)C)c(N2C(=O)CSC2=NC(=O)Nc2ccc(-n3cc(NC(=O)c4ccc(C(C)(C)C)cc4)c(C)n3)cc2)c1` [Example C-73], the “mortality in comparison” value with Plutella xylostella [1] was “at least 75%”.

`Cc1csc(C(=O)Nc2cn(-c3ccc(NC(=O)/N=C4\SCC(=O)N4c4cc(C)ccc4C(C)C)cc3)nc2C)c1` [Example C-93]: the “mortality in comparison” value in the series with Aedes aegypti is listed as “at least 50%”; in the series with Anthonomus grandis, “at least 75%”; in the series on Heliothis virescens it was “at least 75%”; in the series on Plutella xylostella [2] it was “at least 75%”; in the series with Spodoptera eridania, “at least 75%”.

As to `Cc1ccc(C(C)C)c(N2C(=O)CS/C2=N\C(=O)Nc2ccc(-n3cc(NC(=O)c4ccc(C)s4)c(C)n3)cc2)c1` [Example C-94], the “mortality in comparison” value in the series on Aedes aegypti is on record as “at least 50%”; in the series on Anthonomus grandis it was “at least 75%”; with Heliothis virescens, “at least 75%”; with Plutella xylostella [2], “at least 75%”; in the series with Spodoptera eridania, “at least 75%”.

In the case of `Cc1ccc(C(C)C)c(N2C(=O)CS/C2=N\C(=O)Nc2ccc(-n3cc(NC(=O)c4cccs4)c(C)n3)cc2)c1` [Example C-95], the “mortality in comparison” value with Aedes aegypti is reported as “at least 50%”; in the series on Anthonomus grandis it was “at least 75%”; in the series on Heliothis virescens, “at least 75%”; in the series with Plutella xylostella [2], “at least 75%”; with Spodoptera eridania, “at least 75%”.

For the compound `Cc1ccc(C(C)C)c(N2C(=O)CS/C2=N\C(=O)Nc2ccc(-n3nc(C)c(NC(=O)c4ccc(OC(F)(F)F)cc4)c3C)cc2C2CC2)c1` [Example C-96], the “mortality in comparison” value is “at least 50%” with Aedes aegypti; “at least 75%” in the series on Anthonomus grandis; “at least 75%” in the series on Heliothis virescens; “at least 75%” in the series on Plutella xylostella [2]; “at least 75%” in the series on Spodoptera eridania.

With `Cc1ccc(C(C)C)c(N2C(=O)CSC2=NC(=O)Nc2ccc(-n3nc(C)c(NC(=O)c4ccc(F)c(Cl)c4)c3C)cc2)c1` [Example C-113], the “mortality in comparison” value with Aedes aegypti is reported as “at least 50%”; in the series on Anthonomus grandis, “at least 75%”; in the series on Heliothis virescens, “at least 75%”; in the series with Plutella xylostella [1] it was “at least 75%”.

On to `Cc1ccc(C(C)C)c(N2C(=O)CSC2=NC(=O)Nc2ccc(-n3nc(C)c(NC(=O)c4ccc(Br)c(C#N)c4)c3C)cc2)c1` [Example C-121], for which the “mortality in comparison” value is “at least 50%” in the series with Aedes aegypti, “at least 75%” in the series on Anthonomus grandis, “at least 75%” in the series with Spodoptera eridania and “at least 75%” with Plutella xylostella [1].

As for `Cc1ccc(C(C)C)c(N2C(=O)CSC2=NC(=O)Nc2ccc(-n3nc(C)c(NC(=O)c4ccc(C(Cl)Cl)cc4)c3C)cc2)c1` [Example C-122], the “mortality in comparison” value in the series on Anthonomus grandis and with Plutella xylostella [1] was “at least 75%” in each case.

Turning to `Cc1ccc(C(C)C)c(NC(=S)NC(=O)Nc2ccc(-n3cc(NC(=O)c4ccc(OC(F)(F)F)cc4)c(C)n3)cc2)c1` [Example C-127], the “mortality in comparison” value with Anthonomus grandis, in the series on Heliothis virescens, in the series on Spodoptera eridania and with Plutella xylostella [1] was “at least 75%” each time.

These data come from patent US20260354380A1, “PYRAZOLO PESTICIDAL COMPOUNDS” (BASF SE, priority 2022, published 2026).
